In US20230330095A1, “PHARMACEUTICAL COMPOSITION FOR ANTI-CANCER COMPRISING NUPR1 ISOFORM A INHIBITOR” (SEOUL NATIONAL UNIVERSITY R&DB FOUNDATION, priority 2022, published 2023):

How the values were obtained:
NUPR1 isoform A [1] = target: NUPR1 isoform A (Homo sapiens, UniProt O60356); test: calorimetric titration of 3dc and NUPR1 isoform A; settings: read-out: binding affinity between the NUPR1 isoform A and 3dc
Experimental: Additionally, calorimetric titrations of 3dc and the NUPR1 isoform A were determined.

NUPR1 isoform A [2] = test: NUPR1 isoform A mRNA expression level in GBM-28 and GBM-37; assay type: cell-based, human; settings: GBM-28 and GBM-37 cell lines, treated versus untreated
Experimental: (§1) In order to confirm the anticancer efficacy of NUPR1 isoform A inhibitors in brain tumors, experiments were performed using brain tumor patient-derived cell lines obtained from primary glioblastoma patients (GBM-28) and secondary gliosarcoma patients (GBM-37).

NUPR1 isoform A [3] = test: immunochemical analysis of nuclear transfer of NUPR1 isoform A; assay type: cell-based, human; settings: GBM-37, immunochemical analysis
Experimental: as §1
First, through immunochemical analysis, it was confirmed that when GBM-37 was treated with 3dc, nuclear transfer of the NUPR1 isoform A was inhibited, as shown in FIG. 6.

GBM-37 [4] = test: cholecystokinin (CCK) measurement after treatment; assay type: cell-based, human; settings: GBM-37 compared with GBM-28
Experimental: as §1
In addition, after treating GBM-28 and GBM-37 with temozolomide and 3dc, respectively, cholecystokinin (CCK) results were measured.

GBM-37 [5] = test: wound healing assay; assay type: cell-based, human; settings: GBM-37 compared with GBM-28
Experimental: as §1

GBM-37 [6] = test: invasion and proliferation assay; assay type: cell-based, human; settings: GBM-37 compared with GBM-28
Experimental: as §1

GBM-28 [7] = test: cell viability with increasing 3dc concentration; assay type: cell-based, human; settings: as treatment concentration of 3dc increased
Experimental: as §1

GBM-37 [8] = test: cell viability with increasing 3dc concentration; assay type: cell-based, human; settings: as treatment concentration of 3dc increased
Experimental: as §1

GBM-28 [9] = test: cell proliferation analysis (MTS assay); assay type: cell-based, human
Experimental: as §1
(§2) In addition, after treating GBM-28 and GBM-37 with 3dc, cell proliferation analysis (MTS assay) was performed. As a result of treating GBM-28 and GBM-37 with 3dc, respectively, it was confirmed that cell proliferation was inhibited compared to the untreated control group, and compared to the control group overexpressing (OE) NUPR1 isoform A in GBM-28, in the case of i) treating 3dc, ii) transfecting the NUPR1 isoform A with siRNAs of SEQ ID NOs: 5 and 6 (siNUPR1a), and iii) transfecting 3dc-treated NUPR1 isoform A with siRNAs of SEQ ID NOs: 5 and 6, the cell proliferation was all inhibited. In addition, compared to the untreated control GBM-37, in the case of i) transfecting the NUPR1 isoform A with siRNAs of SEQ ID NOs: 5 and 6 and ii) transfecting 3dc-trated NUPR1 isoform A with siRNAs of SEQ ID NOs: 5 and 6, the cell proliferation was all inhibited, confirming that 3dc inhibited the proliferation ability of brain tumor cells expressing the NUPR1 isoform A (FIG. 11).

GBM-37 [10] = test: cell proliferation analysis (MTS assay); assay type: cell-based, human; settings: compared to untreated control
Experimental: as §1, §2

GBM-37 [11] = test: cDNA microarray transcriptome analysis; assay type: cell-based, human
Experimental: In addition, GBM-37 was treated with 100 nM of 3dc, and transcriptome changes were confirmed through cDNA microarray analysis.

DU145 = test: cell viability, prostate cancer cells; assay type: cell-based; settings: as treatment concentration of 3dc increased
Text: (§3) For prostate cancer cells, DU145 and PC3, as the treatment concentration of 3dc, a NUPR1 isoform A inhibitor, increased, cell viability decreased, confirming the anticancer efficacy of 3dc (FIG. 21).

PC3 = test: cell viability, prostate cancer cells; assay type: cell-based; settings: as treatment concentration of 3dc increased
Text: as §3

HCT116 [12] = test: cell viability, colon cancer cells; assay type: cell-based; settings: as treatment concentration of 3dc increased
Text: (§4) For colon cancer cells, HT29 and HCT116, as the treatment concentration of 3dc, a NUPR1 isoform A inhibitor, increased, cell viability decreased, confirming the anticancer efficacy of 3dc (FIG. 22).

HT29 [13] = test: cell viability, colon cancer cells; assay type: cell-based; settings: as treatment concentration of 3dc increased
Text: as §4

SNU790 = test: cell viability, thyroid cancer cells; assay type: cell-based; settings: as treatment concentration of 3dc increased
Text: (§5) For thyroid cancer cells, SNU80 and SNU790, as the treatment concentration of 3dc, a NUPR1 isoform A inhibitor, increased, cell viability decreased, confirming the anticancer efficacy of 3dc (FIG. 25).

SNU80 = test: cell viability, thyroid cancer cells; assay type: cell-based; settings: as treatment concentration of 3dc increased
Text: as §5

A549 [14] = test: cell viability, lung cancer cells; assay type: cell-based; settings: as treatment concentration of 3dc increased
Text: (§6) For lung cancer cells, A549 and NCI-H1299, as the treatment concentration of 3dc, a NUPR1 isoform A inhibitor, increased, cell viability decreased, confirming the anticancer efficacy of 3dc (FIG. 26).

NCI-H1299 [15] = test: cell viability, lung cancer cells; assay type: cell-based; settings: as treatment concentration of 3dc increased
Text: as §6

A375P = test: cell viability, skin cancer cells; assay type: cell-based; settings: as treatment concentration of 3dc increased
Text: (§7) For skin cancer cells, A375P and SK-MEL1, as the treatment concentration of 3dc, a NUPR1 isoform A inhibitor, increased, cell viability decreased, confirming the anticancer efficacy of 3dc (FIG. 29).

SK-MEL1 = test: cell viability, skin cancer cells; assay type: cell-based; settings: as treatment concentration of 3dc increased
Text: as §7

Caov3 = test: cell viability, ovary cancer cells; assay type: cell-based; settings: as treatment concentration of 3dc increased
Text: (§8) For ovary cancer cells, Caov3 and SKOV3, as the treatment concentration of 3dc, a NUPR1 isoform A inhibitor, increased, cell viability decreased, confirming the anticancer efficacy of 3dc (FIG. 30).

SKOV3 = test: cell viability, ovary cancer cells; assay type: cell-based; settings: as treatment concentration of 3dc increased
Text: as §8

Hep3B = test: cell viability, liver cancer cells; assay type: cell-based; settings: as treatment concentration of 3dc increased
Text: (§9) For liver cancer cells, HepG2 and Hep3B, as the treatment concentration of 3dc, a NUPR1 isoform A inhibitor, increased, cell viability decreased, confirming the anticancer efficacy of 3dc (FIG. 31).

HepG2 = test: cell viability, liver cancer cells; assay type: cell-based; settings: as treatment concentration of 3dc increased
Text: as §9

BT-20 = test: cell viability, breast cancer cells; assay type: cell-based; settings: as treatment concentration of 3dc increased
Text: (§10) For breast cancer cells, BT-20 and MCF7, as the treatment concentration of 3dc, a NUPR1 isoform A inhibitor, increased, cell viability decreased, confirming the anticancer efficacy of 3dc (FIGS. 32, 33, and 34).

MCF7 = test: cell viability, breast cancer cells; assay type: cell-based; settings: as treatment concentration of 3dc increased
Text: as §10

KATOIII = test: cell viability, gastric cancer cells; assay type: cell-based; settings: as treatment concentration of 3dc increased
Text: (§11) For gastric cancer cells, KATOIII and NCl-N87, as the treatment concentration of 3dc, a NUPR1 isoform A inhibitor, increased, cell viability decreased, confirming the anticancer efficacy of 3dc (FIG. 35).

NCl-N87 = test: cell viability, gastric cancer cells; assay type: cell-based; settings: as treatment concentration of 3dc increased
Text: as §11

HCT116 [16] = test: mouse model intravitreally injected with colon cancer cells, tumor size; assay type: in vivo; settings: HCT116 in Balb/c nude mice, 1 mM 3dc, visually observed after 1, 2, 3 and 4 weeks
Experimental: (§12) In addition, colon cancer cells, HT29 and HCT116 was intravitreal injected into 6-week-old male Balb/c nude mice at 3×10^5 cells/2 μl according to a method disclosed in Lee et al. Experimental & Molecular Medicine (2019) 51:43, and then the tumor size of 1 mM 3dc treatment group (experimental group) and the untreated group (control group) was visually observed after 1 week, 2 weeks, 3 weeks and 4 weeks.

HT29 [17] = test: as above; assay type: in vivo; settings: HT29 in Balb/c nude mice, 1 mM 3dc, visually observed after 1, 2, 3 and 4 weeks
Experimental: as §12

A549 [18] = test: mouse model intravitreally injected with lung cancer cells, tumor size; assay type: in vivo; settings: A549 in Balb/c nude mice, 1 mM 3dc, visually observed after 1, 2, 3 and 4 weeks
Experimental: (§13) In addition, lung cancer cells, A549 and NCI-H1299 was intravitreal injected into 6-week-old male Balb/c nude mice at 3×10^5 cells/2 μl according to a method disclosed in Lee et al. Experimental & Molecular Medicine (2019) 51:43, and then the tumor size of 1 mM 3dc treatment group (experimental group) and the untreated group (control group) was visually observed after 1 week, 2 weeks, 3 weeks and 4 weeks.

NCI-H1299 [19] = test: as above; assay type: in vivo; settings: NCI-H1299 in Balb/c nude mice, 1 mM 3dc, visually observed after 1, 2, 3 and 4 weeks
Experimental: as §13

GBM-37 [20] = test: cell viability after 3dc pre-treatment and temozolomide (anticancer adjuvant); assay type: cell-based, human
Experimental: To confirm whether 3dc, a NUPR1 isoform A inhibitor, may be applied as an anticancer adjuvant, brain tumor cell GBM-37 was treated with temozolomide (TMZ) and 3dc, and cell viability was confirmed.
GBM-37 was pre-treated with 50 nM, 100 nM, and 200 nM of 3dc for 24 hours, and then was treated with 250 μM, 500 μM, 1000 μM, 2000 μM, and 4000 μM of temozolomide, respectively, and cell viability was confirmed.

[21] = GBM-28 overexpressing (OE) NUPR1 isoform A, MTS assay, compared to OE control group
[22] = GBM-37, gene ontology and network analysis

NUPR1 isoform A (Homo sapiens, UniProt O60356), sequence (O60356 1-100 isoform O60356-2): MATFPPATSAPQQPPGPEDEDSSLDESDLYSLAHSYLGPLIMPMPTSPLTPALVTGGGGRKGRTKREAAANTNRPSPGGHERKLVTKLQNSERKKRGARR

FC(F)(F)c1ccc2c(c1)N(CCCCN1CCC(N3CCCC3)CC1)c1ccccc1S2 [3dc, 10-(4-(4-(pyrrolidin-1-yl)piperidin-1-yl)butyl)-2-(trifluoromethyl)-10H-phenothiazine]
Kd (NUPR1 isoform A [1]): 89 µM | mRNA expression level of NUPR1 isoform A (NUPR1 isoform A [2]): significantly decreased | nuclear transfer of the NUPR1 isoform A (NUPR1 isoform A [3]): inhibited | cholecystokinin (CCK) results (GBM-37 [4]): better effect | inhibitory effect on cell migration (GBM-37 [5]): better inhibitory effect | invasion inhibitory effect (GBM-37 [6]): better | proliferation inhibitory effect (GBM-37 [6]): better | cell viability (GBM-28 [7]): decreased | cell viability (GBM-37 [8]): decreased | cell proliferation (GBM-28 [9]; GBM-28, MTS assay, compared to untreated control group): inhibited | cell proliferation (GBM-28 [9]; GBM-28 overexpressing (OE) NUPR1 isoform A, 3dc treatment combined with siNUPR1a transfection, compared to OE control group): inhibited | cell proliferation (GBM-28 [9]; [21]): inhibited | cell proliferation (GBM-37 [10]; GBM-37, 3dc treatment combined with siNUPR1a transfection): inhibited | cell proliferation (GBM-37 [10]; GBM-37, MTS assay): inhibited | genes related to essential cell phenomena such as DNA repair, cell migration, and cell cycle (GBM-37 [11]; GBM-37, 100 nM 3dc, cDNA microarray): down-regulated | genomic aberrations of coding genes: most chromosomal genes (GBM-37 [11]; GBM-37, based on the transcriptome analysis): affected or down-regulated | basic biological processes such as DNA packaging and protein-DNA complex assembly (GBM-37 [11]; [22]): significantly inhibited | basic cellular components such as DNA packaging complexes and nucleosomes (GBM-37 [11]; [22]): destroyed | basic molecular functions such as nucleic acid binding and RNA binding (GBM-37 [11]; [22]): significantly inhibited | cell viability (DU145): decreased | cell viability (PC3): decreased | cell viability (HCT116 [12]): decreased | cell viability (HT29 [13]): decreased | cell viability (SNU790): decreased | cell viability (SNU80): decreased | cell viability (A549 [14]): decreased | cell viability (NCI-H1299 [15]): decreased | cell viability (A375P): decreased | cell viability (SK-MEL1): decreased | cell viability (Caov3): decreased | cell viability (SKOV3): decreased | cell viability (Hep3B): decreased | cell viability (HepG2): decreased | cell viability (BT-20): decreased | cell viability (MCF7): decreased | cell viability (KATOIII): decreased | cell viability (NCl-N87): decreased | tumor size compared with control group (HCT116 [16]): smaller and more transparent | tumor size compared with control group (HT29 [17]): smaller and more transparent | tumor size compared with control group (A549 [18]): smaller and more transparent | tumor size compared with control group (NCI-H1299 [19]): smaller and more transparent | cell viability compared to the untreated control group (GBM-37 [20]; GBM-37, 2000 μM temozolomide, 3dc at 50 nM, 100 nM and 200 nM): significantly reduced | cell viability compared to the untreated control group (GBM-37 [20]; GBM-37 pre-treated 24 hours with 50, 100, 200 nM 3dc, then 250-4000 μM temozolomide): significantly reduced

siNUPR1a: siRNAs of SEQ ID NOs: 5 and 6 directed against NUPR1 isoform A (chain 1 GCCUAUGCCCACUUCACCUUU; chain 2 AGGUGAAGUGGGCAUAGGCUU; listed as RNA, chemistry not given here)
cell proliferation (GBM-28 [9]; [21]): inhibited | cell proliferation (GBM-37 [10]; GBM-37, MTS assay): inhibited
